Results taken from patent publication US20090255440A1, “Benzothioxanthene dyes with improved application and toxicological properties” (Clariant International Ltd., priority 2008, published 2009).

How the values were obtained:
[1] = LLNA test for skin sensitization (OECD Guideline 429); type: in vivo; details: OECD Guideline 429, suitable vehicle, for example acetone:olive oil (4+1)
Text: We further submitted the same samples to a LLNA screening, in order to assess the potential skin sensitization properties of the product.
The Local Lymph Node Assay (LLNA) is an alternative to the guinea pig sensitization test which is employed by the pharmaceutical, chemical, consumer product and cosmetic industries to identify and characterize substances with immunotoxic properties.
Solvent Orange 63 as prepared above was subjected to LLNA test for skin sensitization, according to OECD Guideline 429 in suitable vehicle, for example acetone:olive oil (4+1).

[2] = system: Salmonella typhimurium Strain TA98; test: Ames test for mutagenity (OECD 471); type: cell-based
Text: Due to the availability of different grades of Solvent Orange 63 for the corrosion tests, we decided to submit them all to an Ames test, one of several genotoxicity assays for the assessment of product safety.
The Ames test is a screening for the mutagenic effect of substances on microorganisms, cells and tissue cultures and therefore their potential carcinogenic effect. This relies on the observation that the most common cause of cancer is somatic mutations brought about by DNA damage. Chemicals that damage bacterial DNA, and induce mutations, are therefore likely to cause mutations in mammalian cells. Assay is done using bacteria, which gives fast and relatively cheap results and avoids the controversial tests on animals.
The strains used are among those recommended by OECD 471: Salmonella typhimurium and Escherichia coli.
Solvent Orange 63 as prepared above was subjected to Ames test for mutagenity. The strains used are among those recommended by OECD 471: Salmonella typhimurium and E. coli.

[3] = in the presence of S9 mix (metabolic activation)

In the case of `O=c1c2ccccc2c2ccc3sc4ccccc4c4ccc1c2c34` [Solvent Orange 63 from Sample A, C.I. Solvent Orange 63], the “skin sensitization (LLNA)” value [1] was “not skin sensitizers” and the “mutagenic to Salmonella typhimurium Strain TA98” value [2, 3] was “not mutagenic”.
With `O=c1c2ccccc2c2ccc3sc4ccccc4c4ccc1c2c34` [Solvent Orange 63 from Sample B, C.I. Solvent Orange 63] the “skin sensitization (LLNA)” value [1] was “not skin sensitizers” and the “mutagenic to Salmonella typhimurium Strain TA98” value [2, 3] was “not mutagenic”.
With `O=c1c2ccccc2c2ccc3sc4ccccc4c4ccc1c2c34` [Solvent Orange 63 from Sample D, C.I. Solvent Orange 63] the “skin sensitization (LLNA)” value [1] was “skin sensitizers” and the “mutagenic to Salmonella typhimurium Strain TA98” value ([2]; with or without liver microsomal activation (S9 mix)) was “mutagenic”.
With `O=c1c2ccccc2c2ccc3sc4ccccc4c4ccc1c2c34` [Solvent Orange 63 from Sample C, C.I. Solvent Orange 63] the “skin sensitization (LLNA)” value [1] was “skin sensitizers” and the “mutagenic to Salmonella typhimurium Strain TA98” value [2, 3] was “not mutagenic”.
